Reference: patent US9522882B2, “Strigolactam derivatives as plant growth regulating compounds” (Syngenta Participations AG, priority 2011, dated 2016)

Key:
[1] = tested on: Brassica oleracea cv Botrytis; experiment: Standard paper germination test for Brassica (tropical cauliflower seeds, 20° C. in the dark); format: in vivo; conditions: tropical cauliflower 3C150 (seed batch 11B295), 25 μM
Description: The effect of compounds of Formula (I) on the germination of Brassica oleracea cv Botrytis or common cauliflower was tested on tropical types. […] Germination of a sensitive tropical type at 20° is stimulated by the presence of light.
The tropical seed batch tested was part of seed batches produced as basic seed (for maintenance of the parental line) and were processed accordingly.
Germination was assessed using the standard paper germination test for Brassica: Fifty seeds were placed on blue germination paper, which was moistened with the appropriate solutions, in closed oblong germination boxes. Each condition was tested in duplo. Germination boxes were placed in controlled germination cabinets with the appropriate temperature and light conditions. Germination of seeds was counted at regular intervals. Seeds were considered to be germinated when the radical had protruded the testa and endosperm (radical size approximately 1 mm). Germination kinetics were analyzed using the Germinator analysis tool in order to obtain the parameters: Gmax (maximum germination) and t50 (time needed to reach 50% of the Gmax). The Germinator analysis tool is an add-in in for excel developed by the University of Wageningen: Joosen, R. V. L., J. Kodde, et al. (2010). (“Germinator: A Software Package for High-Throughput Scoring and Curve Fitting of Arabidopsis Seed Germination.” The Plant Journal 62(1): 148-159.)
Test compounds were dissolved in DMSO at a concentration of 50 mM and stored at −20° C. The strigolactone analogue GR24 (commercially available as a racemic mixture of 2 diastereoisomers, referred to as “synthetic strigolactone GR-24” and first prepared by Johnson A. W. & all, Journal of the Chemical Society, Perkin Transactions 1, 1981, page 1734-1743) was included as positive control. Germination solutions were prepared by diluting the stock solutions with demineralized water till 25 μM. As control solutions demineralized water and a 0.05% v/v DMSO solution were used.

[2] = tested on: Orobanche cumana Wallr. seeds; experiment: Orobanche cumana seed germination test on glass fiber filter paper in petri dishes; format: in vivo; conditions: mean, n = 5 × 100 seeds; for Germination % at concentration of 0.001 mg I^−1 / Germination % at concentration of 0.01 mg I^−1 / Germination % at concentration of 0.1 mg I^−1: preconditioned seeds of lot IN153, raceF
Description: The effect of compounds of Formula (I) on germination of Orobanche cumana Wallr. seeds was evaluated on glass fiber filter paper (GFFP) in petri dishes. Seeds were preconditioned at moisture and suitable temperature to become responsive to the specific chemical germination stimulants.
Test compounds were dissolved in DMSO (10 000 mg l^−1) and stored at room temperature in a desiccators with desiccants. The stock solutions were dissolved with deionised water to the appropriate final test concentration.
Seeds of O. cumana race ‘F’ were collected from sunflower fields in Manzanilla (Seville, Spain) in 2006 (seed lot 1N146) and 2008 (seed lot 1N153) and stored at room temperature. To separate seeds from heavy organic debris, a modified sucrose floatation technique as described by Hartman & Tanimonure (Plant Disease (1991), 75, p. 494) was applied. Seeds were filled into a separation funnel and stirred in water. When seeds floated to the surface, the water fraction containing heavy debris was discarded. Seeds were re-suspended in 2.5M sucrose solution (specific gravity of 1.20) and heavy debris was allowed to settle down for 60 min. After removing debris, seeds were disinfected in 1% sodium hypochlorite solution and 0.025% (v/v) Tween 20 for 2 min. The seeds were decanted onto two layers of cheesecloth, rinsed with sterile deionised water and re-suspended in sterile deionised water. Two ml of the seed suspension containing approximately 150-400 seeds were spread evenly on two layers of sterile glass fiber filter paper disc ([…]) in Petri dishes (Ø9 cm). After wetting the discs with 3 ml sterile deionised water, petri dishes were sealed with parafilm. Seeds were incubated for 10 days at 20° C. in the dark for seed conditioning. The upper disc with conditioned seeds was briefly dried, transferred to a petri dish lined with a dry GFFP disc, and wetted with 6 ml of the appropriate test solution. The compounds of Formula (I) were tested at concentrations of 0.001, 0.01, and 0.1 mg l^−1. The strigolactone analogue GR24 (commercially available as a mixture of isomers) was included as positive control and 0.001% DMSO as negative control. All treatments were tested in five replicates. Seeds were re-incubated at 20° C. in the dark and examined for germination 10 days later. The radicles of germinated seeds were stained for 5 min with blue ink (MIGROS, Switzerland) in 5% acetic acid according to Long et al. (Seed Science Research (2008), 18, p. 125). After staining, seeds were scanned using a flatbed scanner with an optical resolution of 1200 dpi (PULSTEK, OpticPro ST28) or photographed using a camera stand mounted with a digital SLR camera (Canon EOS 5D). Germination of 100 seeds per replicate was evaluated on digital images. Seeds were considered germinated when the radicle protruded from the seed coat.

In the case of `CC1=C[C@H](O/C=C2/C(=O)O[C@@H]3c4ccccc4C[C@H]23)OC1=O` [GR24, reference compound], the “stimulation (extra germination compared to the DMSO treatment, expressed as percentage of the DMSO treatment)” value [1] is reported as 140.0%, the “Gmax (total germination)” value ([1]; DMSO treatment = 31.3%) is reported as 73.0% and the “Germination % at concentration of 0.001 mg I^−1” value ([2]; Table 5, 0.001 mg I^−1, aqueous control (0.001% DMSO) = 0.2% germination) is reported as 88.6%. The “Germination % at concentration of 0.01 mg I^−1” value ([2]; Table 5, 0.01 mg I^−1, aqueous control (0.001% DMSO) = 0.2% germination) was 96.0%, the “Germination % at concentration of 0.1 mg I^−1” value ([2]; Table 5, 0.1 mg I^−1, aqueous control (0.001% DMSO) = 0.2% germination) was 93.8% and the “Germination % at concentration of 0.001 mg I^−1” value ([2]; Table 6, 0.001 mg I^−1, aqueous control (0.001% DMSO) = 0.8% germination) was 79.8%. The “Germination % at concentration of 0.01 mg I^−1” value ([2]; Table 6, 0.01 mg I^−1, aqueous control (0.001% DMSO) = 0.8% germination) was 93.2%, the “Germination % at concentration of 0.1 mg I^−1” value ([2]; Table 6, 0.1 mg I^−1, aqueous control (0.001% DMSO) = 0.8% germination) was 96.8% and the “Germination %* at concentration of 0.001 mg I^−1” value ([2]; preconditioned Orobanche cumana seeds of lot IN153, race F, 0.001 mg I^−1, aqueous control (0.001% DMSO) = 0.2% germination) was 60.8%. For the same molecule, the “Germination %* at concentration of 0.01 mg I^−1” value ([2]; preconditioned Orobanche cumana seeds of lot IN153, race F, 0.01 mg I^−1, aqueous control (0.001% DMSO) = 0.2% germination) was 83.2% and the “Germination %* at concentration of 0.1 mg I^−1” value ([2]; preconditioned Orobanche cumana seeds of lot IN153, race F, 0.1 mg I^−1, aqueous control (0.001% DMSO) = 0.2% germination) was 90.6%.
